Counter-ions that a name gives are not always drawn. Like-named read-outs stand apart in the source and are kept apart here.
Columns and labels:
hNav1.7 = biological target: T1, hNav1.7 (Homo sapiens, UniProt Q15858); assay: Tritiated compound binding (LBA) to membranes from cells expressing hNav1.7 and the β1 subunit, competitive binding; details: competitive binding vs 100 pM [3H]compound, 18 h, room temperature, membranes with hNav1.7 and β1 subunit
T1 construct: expressed in transfected cells
T1 sequence (Q15858 1-1977 isoform Q15858-3): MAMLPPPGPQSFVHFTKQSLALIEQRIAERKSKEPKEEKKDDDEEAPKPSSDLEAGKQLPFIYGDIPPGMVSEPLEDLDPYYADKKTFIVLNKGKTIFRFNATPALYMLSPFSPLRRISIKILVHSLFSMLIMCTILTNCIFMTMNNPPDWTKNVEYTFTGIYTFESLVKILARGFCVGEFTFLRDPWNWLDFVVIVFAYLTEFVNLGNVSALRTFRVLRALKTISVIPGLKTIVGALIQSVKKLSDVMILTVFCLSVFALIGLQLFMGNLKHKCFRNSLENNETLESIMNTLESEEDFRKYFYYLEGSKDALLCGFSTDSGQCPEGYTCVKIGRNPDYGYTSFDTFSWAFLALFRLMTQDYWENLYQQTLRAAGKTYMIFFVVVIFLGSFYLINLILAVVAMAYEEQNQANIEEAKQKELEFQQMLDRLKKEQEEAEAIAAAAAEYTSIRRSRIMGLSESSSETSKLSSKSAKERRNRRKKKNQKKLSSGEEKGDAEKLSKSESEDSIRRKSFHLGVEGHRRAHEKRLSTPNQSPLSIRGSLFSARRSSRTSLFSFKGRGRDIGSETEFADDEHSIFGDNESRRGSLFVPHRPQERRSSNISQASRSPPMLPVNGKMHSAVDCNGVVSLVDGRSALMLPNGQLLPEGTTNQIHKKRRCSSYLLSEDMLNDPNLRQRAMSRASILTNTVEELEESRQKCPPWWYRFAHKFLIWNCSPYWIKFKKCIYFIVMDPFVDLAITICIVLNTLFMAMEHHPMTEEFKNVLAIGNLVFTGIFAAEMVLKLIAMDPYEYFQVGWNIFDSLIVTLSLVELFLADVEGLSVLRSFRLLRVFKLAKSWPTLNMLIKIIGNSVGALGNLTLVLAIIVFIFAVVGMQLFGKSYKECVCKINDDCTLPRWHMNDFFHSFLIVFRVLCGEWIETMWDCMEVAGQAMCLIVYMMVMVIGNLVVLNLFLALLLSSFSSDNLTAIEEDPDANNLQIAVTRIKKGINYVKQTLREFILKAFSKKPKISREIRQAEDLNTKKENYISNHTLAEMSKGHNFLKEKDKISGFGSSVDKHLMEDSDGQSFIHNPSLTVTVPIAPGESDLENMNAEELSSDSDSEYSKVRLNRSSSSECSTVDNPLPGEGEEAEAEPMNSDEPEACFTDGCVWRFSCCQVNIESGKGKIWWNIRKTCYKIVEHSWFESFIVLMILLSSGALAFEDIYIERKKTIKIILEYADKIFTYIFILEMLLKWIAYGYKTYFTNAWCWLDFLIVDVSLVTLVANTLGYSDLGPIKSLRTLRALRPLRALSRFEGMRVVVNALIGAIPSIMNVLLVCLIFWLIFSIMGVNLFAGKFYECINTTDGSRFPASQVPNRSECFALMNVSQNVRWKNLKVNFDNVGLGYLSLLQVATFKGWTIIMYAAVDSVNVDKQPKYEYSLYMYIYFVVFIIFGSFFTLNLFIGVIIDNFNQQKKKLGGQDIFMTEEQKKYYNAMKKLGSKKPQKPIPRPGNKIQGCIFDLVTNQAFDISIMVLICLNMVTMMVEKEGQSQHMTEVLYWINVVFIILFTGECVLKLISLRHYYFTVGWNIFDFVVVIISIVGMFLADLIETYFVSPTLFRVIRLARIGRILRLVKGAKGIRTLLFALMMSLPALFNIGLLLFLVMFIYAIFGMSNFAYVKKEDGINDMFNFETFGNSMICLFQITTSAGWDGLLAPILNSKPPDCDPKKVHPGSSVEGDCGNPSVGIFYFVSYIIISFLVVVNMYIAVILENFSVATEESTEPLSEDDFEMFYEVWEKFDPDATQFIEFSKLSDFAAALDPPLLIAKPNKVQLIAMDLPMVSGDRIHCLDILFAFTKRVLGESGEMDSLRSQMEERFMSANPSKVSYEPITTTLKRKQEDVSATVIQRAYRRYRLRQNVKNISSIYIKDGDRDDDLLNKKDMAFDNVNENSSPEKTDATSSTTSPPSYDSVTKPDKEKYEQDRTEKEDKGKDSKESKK
T1 sequence (Q07699 19-218 partner): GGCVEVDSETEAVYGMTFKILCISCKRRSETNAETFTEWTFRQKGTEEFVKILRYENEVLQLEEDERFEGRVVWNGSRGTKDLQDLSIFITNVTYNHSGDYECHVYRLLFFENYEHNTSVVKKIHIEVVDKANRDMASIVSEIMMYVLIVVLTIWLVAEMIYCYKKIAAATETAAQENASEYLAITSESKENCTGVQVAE
Procedure, shortened: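 Membranes from cells expressing hNav1.7 with β1 were incubated 18 h at room temperature with 100 pM tritiated formula (I) compound and increasing test compound, in 100 mM NaCl, 20 mM Tris HCl pH 7.4, 0.01% BSA.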

human NaV1.7 = biological target: T2, human NaV1.7 (Homo sapiens, UniProt Q15858); assay: Patch voltage clamp electrophysiology assay (EP), NaV1.7; type: cell-based; details: HEK-293 cells stably expressing NaV1.7 with β1 subunit; whole-cell patch clamp, membrane potential −60 mV (inactivated state)
T2 construct: permanently transfected with an expression vector containing the full-length cDNA coding for the desired human sodium channel α-subunit; expressed in transfected cells; host or cells: HEK-293
T2 sequence (Q15858 1-1977 isoform Q15858-3): as the sequence (Q15858 1-1977 isoform Q15858-3) above
T2 sequence (Q07699 19-218 partner): as the sequence (Q07699 19-218 partner) above
Procedure, shortened: (§1)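 HEK-293 cells stably expressing human α-subunit with β1; whole-cell patch clamp (PatchXpress or manual), ambient temperature, pH 7.4 external NaCl, CsF internal. Held at −60 mV (full inactivation), stepped to −150 mV for 20 ms, then test pulse; percent current decrease after compound wash-on taken as block.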

NaV1.5 = biological target: T3, NaV1.5 (Homo sapiens, UniProt Q14524); assay: Patch voltage clamp electrophysiology assay (EP), NaV1.5; type: cell-based; details: HEK-293 cells stably expressing NaV1.5 with β1 subunit, whole-cell patch clamp, membrane potential −60 mV (inactivated state)
T3 construct: permanently transfected with an expression vector containing the full-length cDNA coding for the desired human sodium channel α-subunit; expressed in transfected cells; host or cells: HEK-293
T3 sequence (Q14524 whole entry): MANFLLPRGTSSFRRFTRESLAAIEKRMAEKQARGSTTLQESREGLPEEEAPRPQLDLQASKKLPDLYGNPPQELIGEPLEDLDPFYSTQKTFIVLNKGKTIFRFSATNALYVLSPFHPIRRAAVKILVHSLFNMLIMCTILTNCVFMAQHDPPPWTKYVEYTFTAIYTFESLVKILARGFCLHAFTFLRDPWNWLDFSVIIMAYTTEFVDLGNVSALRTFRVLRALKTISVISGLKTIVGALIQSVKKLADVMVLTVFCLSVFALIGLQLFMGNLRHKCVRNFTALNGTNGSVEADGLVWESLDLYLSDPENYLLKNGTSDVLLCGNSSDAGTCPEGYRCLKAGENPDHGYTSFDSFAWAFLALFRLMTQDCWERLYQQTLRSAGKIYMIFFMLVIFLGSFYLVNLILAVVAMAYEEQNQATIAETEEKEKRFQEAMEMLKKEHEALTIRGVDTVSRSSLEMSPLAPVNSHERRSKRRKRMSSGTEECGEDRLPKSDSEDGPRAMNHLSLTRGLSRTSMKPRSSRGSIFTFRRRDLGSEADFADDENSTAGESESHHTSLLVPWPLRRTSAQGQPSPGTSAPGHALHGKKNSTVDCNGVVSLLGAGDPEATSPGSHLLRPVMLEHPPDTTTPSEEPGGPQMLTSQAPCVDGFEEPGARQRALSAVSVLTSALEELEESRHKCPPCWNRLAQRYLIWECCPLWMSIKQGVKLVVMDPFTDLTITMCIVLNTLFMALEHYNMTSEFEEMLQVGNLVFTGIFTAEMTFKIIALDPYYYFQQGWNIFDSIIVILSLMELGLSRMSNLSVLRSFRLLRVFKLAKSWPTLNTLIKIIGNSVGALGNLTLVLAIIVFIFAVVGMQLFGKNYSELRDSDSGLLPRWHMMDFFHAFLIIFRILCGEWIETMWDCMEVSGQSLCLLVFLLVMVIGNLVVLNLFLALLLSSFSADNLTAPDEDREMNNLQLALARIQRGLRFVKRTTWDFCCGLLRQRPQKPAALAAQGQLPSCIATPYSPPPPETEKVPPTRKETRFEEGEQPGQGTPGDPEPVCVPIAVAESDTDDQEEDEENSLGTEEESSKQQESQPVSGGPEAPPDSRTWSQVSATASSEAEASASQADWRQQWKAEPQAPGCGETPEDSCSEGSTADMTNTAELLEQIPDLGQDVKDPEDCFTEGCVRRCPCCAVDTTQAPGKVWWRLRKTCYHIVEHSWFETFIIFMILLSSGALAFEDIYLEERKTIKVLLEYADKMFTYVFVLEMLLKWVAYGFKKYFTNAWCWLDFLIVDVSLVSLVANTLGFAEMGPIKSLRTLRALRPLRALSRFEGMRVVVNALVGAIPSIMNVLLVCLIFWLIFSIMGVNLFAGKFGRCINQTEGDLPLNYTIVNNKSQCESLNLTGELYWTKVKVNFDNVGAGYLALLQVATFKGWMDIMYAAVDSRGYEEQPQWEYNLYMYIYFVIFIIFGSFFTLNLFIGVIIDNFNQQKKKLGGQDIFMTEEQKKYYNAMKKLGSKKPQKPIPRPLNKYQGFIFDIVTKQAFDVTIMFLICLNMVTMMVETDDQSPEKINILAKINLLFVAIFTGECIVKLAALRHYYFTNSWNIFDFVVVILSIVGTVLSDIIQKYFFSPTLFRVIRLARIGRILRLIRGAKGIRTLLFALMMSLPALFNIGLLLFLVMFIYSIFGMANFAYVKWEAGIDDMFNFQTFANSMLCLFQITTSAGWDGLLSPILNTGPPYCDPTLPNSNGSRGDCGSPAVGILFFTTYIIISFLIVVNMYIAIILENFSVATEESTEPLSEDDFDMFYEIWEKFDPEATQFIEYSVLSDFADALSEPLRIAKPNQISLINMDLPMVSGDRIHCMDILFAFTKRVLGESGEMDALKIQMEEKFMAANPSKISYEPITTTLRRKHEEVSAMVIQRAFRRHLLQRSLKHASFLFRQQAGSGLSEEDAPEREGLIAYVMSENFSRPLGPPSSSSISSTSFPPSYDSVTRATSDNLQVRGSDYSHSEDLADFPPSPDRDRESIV
Procedure, shortened: as §1

[1] = human, HEK-293 cells stably expressing human NaV1.5 with β1 subunit, pH 7.4

SMILES	IC50 (hNav1.7) [µM]	IC50 (human NaV1.7) [µM]	IC50 (NaV1.5; [1]) [µM]	IC50 (NaV1.5; read-out: Nav1.5) [µM]
O=C(O)[C@@H]1C[C@@H](F)CN1C(=O)c1cc(C2CC2)c(OCCC2CCN(Cc3cc(Cl)cc(Cl)c3)CC2)cc1F [Example 94, (2S, 4R)-1-(5-cyclopropyl-4-(2-(1-(3,5-dichlorobenzyl)piperidin-4-yl)ethoxy)-2-fluorobenzoyl)-4-fluoropyrrolidine-2-carboxylic acid]	0.1	0.6	≥ 30	–
O=C(O)[C@@H]1CCCN1C(=O)c1cc(C2CC2)c(OC2CN(C(c3ccccc3)c3ccccc3)C2)cc1F [Example 141, (S)-1-(4-(1-benzhydrylazetidin-3-yloxy)-5-cyclopropyl-2-fluorobenzoyl)pyrrolidine-2-carboxylic acid]	0.49	6.1	≥ 30	–
O=C(NC(C(=O)O)C(F)(F)F)c1cc(C2CC2)c(OCC23CC4CC(CC(C4)C2)C3)cc1F (stereo not drawn) [Example 223, 2-(4-(adamantan-1-ylmethoxy)-5-cyclopropyl-2-fluorobenzamido)-3,3,3-trifluoropropanoic acid]	0.91	2.9	–	3.9
O=C(O)[C@@H]1C=C(C(F)(F)F)CN1C(=O)c1cc(C2CC2)c(OCC23CC4CC(CC(C4)C2)C3)cc1F [Example 203]	≥ 10	10	–	19
C[C@@H](O)[C@H](NC(=O)c1cc(C2CC2)c(OCC23CC4CC(CC(C4)C2)C3)cc1F)C(=O)O [Example 57]	0.43	2.1	–	23
CC(C)COc1ncc(Oc2cc(F)c(C(=O)N3CCC[C@H]3C(=O)O)cc2C2CC2)cc1C1CC1 [Example 98, (5-cyclopropyl-4-((5-cyclopropyl-6-isobutoxypyridin-3-yl)oxy)-2-fluorobenzoyl)-L-proline trifluoroacetic acid salt and (4-((5-chloro-6-isobutoxypyridin-3-yl)oxy)-5-cyclopropyl-2-fluorobenzoyl)-L-proline trifluoroacetic acid salt]	0.44	0.74	≥ 30	–
CC1(O)C[C@@H](C(=O)O)N(C(=O)c2cc(C3CC3)c(OCC34CC5CC(CC(C5)C3)C4)cc2F)C1 (stereo partly drawn) [Example 218, (2S)-1-(4-(adamantan-1-ylmethoxy)-5-cyclopropyl-2-fluorobenzoyl)-4-hydroxy-4-methylpyrrolidine-2-carboxylic acid]	0.23	1.6	–	24
O=C(O)[C@@H]1CCCN1C(=O)c1cc(C2CC2)c(COc2cnc(OCC(F)(F)C(F)F)c(C3CC3)c2)cc1F [Example 184, (S)-1-(5-cyclopropyl-4-(((5-cyclopropyl-6-(2,2,3,3-tetrafluoropropoxy)pyridin-3-yl)oxy)methyl)-2-fluorobenzoyl)pyrrolidine-2-carboxylic acid]	0.46	1.3	–	23
O=C(O)[C@@H]1CCCN1C(=O)c1cc(C2CC2)c(OCC23CCC(F)(CC2)CC3)cc1F [Example 56, (5-cyclopropyl-2-fluoro-4-((4-fluorobicyclo[2.2.2]octan-1-yl)methoxy)benzoyl)-L-proline]	0.41	1.8	≥ 30	–
O=C(O)C1COCCN1C(=O)c1cc(C2CC2)c(OCC23CC4CC(CC(C4)C2)C3)cc1F (stereo not drawn) [Example 72, 4-(4-(adamantan-1-ylmethoxy)-5-cyclopropyl-2-fluorobenzoyl)morpholine-3-carboxylic acid]	3.6	5.6	–	24
CC1(COc2cc(F)c(C(=O)N3CCC[C@H]3C(=O)O)cc2C2CC2)CCC2(CC1)CC2 [Example 58, (5-cyclopropyl-2-fluoro-4-((6-methylspiro[2.5]octan-6-yl)-methoxy)benzoyl)-L-proline]	0.083	0.63	–	21
O=C(O)[C@@H]1C[C@@H](F)CN1C(=O)c1cc(C2CC2)c(OCC2CCN(Cc3cc(Cl)cc(C(F)(F)F)c3)CC2)cc1F [Example 173, (2S,4R)-1-(4-((1-(3-chloro-5-(trifluoromethyl)benzyl)piperidin-4-yl)methoxy)-5-cyclopropyl-2-fluorobenzoyl)-4-fluoropyrrolidine-2-carboxylic acid]	0.065	0.33	–	23
C[C@@]1(COc2cc(F)c(C(=O)N3CCC[C@H]3C(=O)O)cc2C2CC2)CCN(c2cc(C(F)(F)F)c(Cl)cn2)C1 [Example 136, (S)-1-(4-(((R)-1-(5-chloro-4-(trifluoromethyl)pyridin-2-yl)-3-methylpyrrolidin-3-yl)methoxy)-5-cyclopropyl-2-fluorobenzoyl)pyrrolidine-2-carboxylic acid]	0.11	1.1	≥ 30	–
O=C(NC1(C(=O)O)COC1)c1cc(C2CC2)c(OCC23CC4CC(CC(C4)C2)C3)cc1F [Example 77, 3-(4-(adamantan-1-ylmethoxy)-5-cyclopropyl-2-fluorobenzamido)oxetane-3-carboxylic acid]	7.4	11	–	12
O=C(O)[C@@H]1CCCCN1C(=O)c1cc(C2CC2)c(OCC23CC4CC(CC(C4)C2)C3)cc1F [Example 83, (S)-1-(4-(adamantan-1-ylmethoxy)-5-cyclopropyl-2-fluorobenzoyl)piperidine-2-carboxylic acid]	0.48	2	–	14
O=C(NO)[C@@H]1C[C@@H](F)CN1C(=O)c1cc(C2CC2)c(OCC23CC4CC(CC(C4)C2)C3)cc1F [Example 199, 1-(4-(adamantan-1-ylmethoxy)-5-cyclopropyl-2-fluorobenzoyl)-4-fluoro-N-hydroxypyrrolidine-2-carboxamide]	0.47	3.6	–	15
O=C(O)C1CC=NN1C(=O)c1cc(C2CC2)c(OCC23CC4CC(CC(C4)C2)C3)cc1F (stereo not drawn) [Example 96, 1-(4-(adamantan-1-ylmethoxy)-5-cyclopropyl-2-fluorobenzoyl)-4,5-dihydro-1H-pyrazole-5-carboxylic acid]	0.38	1.5	≥ 30	–
O=C(O)[C@@H]1C[C@@H](F)CN1C(=O)c1cc(C2CC2)c(OCC2CCN(Cc3noc(-c4ccccc4Cl)n3)CC2)cc1F [Example 220, (2S, 4R)-1-(4-((1-((5-(2-chlorophenyl)-1,2,4-oxadiazol-3-yl)methyl)piperidin-4-yl)methoxy)-5-cyclopropyl-2-fluorobenzoyl)-4-fluoropyrrolidine-2-carboxylic acid]	0.16	0.83	≥ 30	–

The next compounds have a lower IC50 (hNav1.7) than those just listed; values first:

IC50 (hNav1.7) [µM]	IC50 (human NaV1.7) [µM]	SMILES	IC50 (NaV1.5; [1]) [µM]	IC50 (NaV1.5; read-out: Nav1.5) [µM]
0.018	0.88	C[C@H]1CCN(C(=O)c2cc(C3CC3)c(OCC3CCN([C@@H](c4cc(Cl)cc(Cl)c4)C(F)(F)F)CC3)cc2F)[C@@H]1C(=O)O (single isomer, unassigned) [Example 121b]	–	17
0.021	0.16	O=C(O)[C@@H]1C[C@@H](F)CN1C(=O)c1cc(C2CC2)c(OCC2CCN([C@@H](c3cc(Cl)cc(Cl)c3)C(F)(F)F)CC2)cc1F (single isomer, unassigned) [Example 140b]	–	3.7
0.02	0.88	C[C@H]1CCN(C(=O)c2cc(C3CC3)c(OCC3CCN([C@H](c4cc(Cl)cc(Cl)c4)C(F)(F)F)CC3)cc2F)[C@@H]1C(=O)O (single isomer, unassigned) [Example 121a]	–	13
0.034	0.55	CO[C@@H]1C[C@@H](C(=O)O)N(C(=O)c2cc(C3CC3)c(OCC34CC5CC(CC(C5)C3)C4)cc2F)C1 [Example 59, (2S,4R)-1-(4-((adamantan-1-yl)methoxy)-5-cyclopropyl-2-fluorobenzoyl)-4-methoxypyrrolidine-2-carboxylic acid]	–	26
0.027	0.13	O=C(O)[C@@H]1C[C@@H](F)CN1C(=O)c1cc(C2CC2)c(OCC2(F)CCN(Cc3cc(C(F)(F)F)ccc3Cl)CC2)cc1F [Example 106, (2S,4R)-1-(4-((1-(2-chloro-5-(trifluoromethyl)benzyl)-4-fluoropiperidin-4-yl)methoxy)-5-cyclopropyl-2-fluorobenzoyl)-4-fluoropyrrolidine-2-carboxylic acid]	–	21
0.05	0.23	O=C(O)[C@@H]1CCCN1C(=O)c1cc(C2CC2)c(OCC2CCN(Cc3cc(Cl)ccc3C(F)(F)F)CC2)cc1F [Example 181, (S)-1-(4-((1-(5-chloro-2-(trifluoromethyl)benzyl)piperidin-4-yl)methoxy)-5-cyclopropyl-2-fluorobenzoyl)pyrrolidine-2-carboxylic acid]	≥ 30	–
0.021	0.76	O=C(N[C@H](C(=O)O)C1CC1)c1cc(C2CC2)c(OCC2CCN([C@H](c3ccccc3)c3cc(Cl)cc(Cl)c3)CC2)cc1F (single isomer, unassigned) [Example 118]	–	15
0.035	0.64	O=C(O)[C@@H]1CC(F)(F)CN1C(=O)c1cc(C2CC2)c(OCC23CC4CC(CC(C4)C2)C3)cc1F [Example 145, (2S)-1-[4-(1-adamantylmethoxy)-5-cyclopropyl-2-fluoro-benzoyl]-4,4-difluoro-pyrrolidine-2-carboxylic acid]	–	16

From patent publication US10125098B2, “Therapeutic compounds and methods of use thereof” (GENENTECH, INC., priority 2014, dated 2018)
